Here are results for 36 compounds from patent publication US9764046B2, “Labeling composition for intraocular tissue, labeling method of intraocular tissue, and screening method” (CANON KABUSHIKI KAISHA, priority 2008, dated 2017).

Data set [1] has as its system intraocular tissue (retinal tissue incl. photoreceptor cell layer, vitreous body) of Zebrafish 7-day-old embryo. Put plainly: Staining of intraocular tissue of Zebrafish fry by exposure to staining liquid, ocular tissue section observed by confocal microscope. Type of data set: in vivo. The note with it: Zebrafish 7 dpf fry, 1 μg/mL, 1 hour exposure, fixed ocular section.

The nature of data set [2]: Excitation and fluorescence wavelengths by fluorescence spectrometer FL4500. Type of data set: physicochemical. The note with it: in nm (unit assumed).
[3] abbreviates: aqueous solution: 10 mg/mL DMSO solution diluted to 1/500 with purified water (Examples 1 to 94).
The mark [4] stands for this setting: values in a chloroform solution (Examples 95 to 106).

In the case of `C=CCN1C(=O)/C(=c2\s/c(=C/c3ccc4c(c3)C3CCCC3N4c3ccc(OC)cc3)c(=O)n2CC(=O)O)SC1=S` (stereo not shown) [Compound 97], the Staining ability entry in data set [1] is on record as “∘”. In data set [2] (setting [3]), the “λem (fluorescence wavelength)” value was determined as 680 and the “λex (excitation wavelength)” value came to 530.
On the same counts, the results for `CCN1C(=S)S/C(=c2/s/c(=C/c3ccc4c(c3)C3CCCC3N4c3ccc(C=C(c4ccccc4)c4ccccc4)cc3)c(=O)n2CC(=O)O)C1=S` (stereo not shown) [Compound 79] are “++”, 702 and 567.
As for `CN(C)c1ccc(/C=C/C=C/c2sc3ccccc3[n+]2CC(=O)O)cc1.[Br-]` [Compound 24], in data set [1], the Stained site came to 1 and the Staining ability entry is reported as “++”. For the same compound, in data set [2] (setting [3]), the “λem (fluorescence wavelength)” value was found to be 692 and the “λex (excitation wavelength)” value was found to be 609.
On the same counts, the results for `CCOC(=O)c1cc(/C=C/C=C/c2sc3ccccc3[n+]2CC(=O)O)c2cccccc1-2.[Br-]` [Compound 88] are 1, “++”, 503 and 450.
Take `O=C(O)CN1C(=O)/C(=C\c2ccc3c(c2)[C@@H]2CCC[C@@H]2N3c2ccccc2)SC1=S` [Compound 37]: in data set [1], the Staining ability entry is “+++”. In data set [2] (setting [3]), the “λem (fluorescence wavelength)” value was 633 and the “λex (excitation wavelength)” value is listed as 531.
For `Cc1cccc(Nc2ccc3c4c(cc(=O)n3C)-c3ccccc3C(=O)c24)c1` [Compound 115], the Staining ability entry in data set [1] was “∘”. For the same compound, in data set [2] (setting [4]), the “λem (fluorescence wavelength)” value is on record as 614 and the “λex (excitation wavelength)” value is reported as 540.
For the compound `O=C(O)CC[n+]1c(/C=C/c2ccc3c(c2)C2CCCC2N3c2ccc(C=C(c3ccccc3)c3ccccc3)cc2)sc2ccccc21.[I-]` (stereo not shown) [Compound 78], in data set [1], the Stained site turned out to be 1 and the Staining ability result is on record as “++”. Also, in data set [2] (setting [3]), the “λem (fluorescence wavelength)” value was determined as 726 and the “λex (excitation wavelength)” value turned out to be 598.
Take `CCN1C(=O)/C(=c2\s/c(=C/c3ccc4c(c3)[C@@H]3CCC[C@@H]3N4c3ccc(OC)cc3)c(=O)n2CC(=O)O)SC1=S` [Compound 41]: the Staining ability entry in data set [1] is given as “++”. Moreover, in data set [2] (setting [3]), the “λem (fluorescence wavelength)” value worked out at 679 and the “λex (excitation wavelength)” value was 582.
`CCn1c(=C2SC(=S)N(CC(=O)O)C2=O)sc(=Cc2ccc3c(c2)C2CCCC2N3c2ccccc2)c1=O` (stereo not shown) [Compound 102]: in data set [1], the Stained site came out at 1 and the Staining ability result is “∘”. In addition, in data set [2] (setting [3]), the “λem (fluorescence wavelength)” value amounted to 700 and the “λex (excitation wavelength)” value worked out at 590.
As to `O=C1C=Cc2cc(S(=O)(=O)O)cc(S(=O)(=O)O)c2/C1=N/Nc1ccc(S(=O)(=O)O)c2ccccc12` [Compound 4], in data set [1], the Staining ability result is recorded as “++”. Also, in data set [2] (setting [3]), the “λem (fluorescence wavelength)” value stood at 560 and the “λex (excitation wavelength)” value stood at 473.
On the same counts, the results for `CC1(C)c2ccccc2-c2ccc(N(c3ccccc3)c3ccc(/C=C4/SC(=S)N(CC(=O)O)C4=O)cc3)cc21` [Compound 33] are “++”, 628 and 512.
As to `Cn1c(=O)cc2c3c(c(NCc4ccccc4)ccc31)C(=O)c1ccccc1-2` [Compound 3], the Staining ability entry in data set [1] was “++”. In addition, in data set [2] (setting [3]), the “λem (fluorescence wavelength)” value is reported as 556 and the “λex (excitation wavelength)” value amounted to 480.
On the same counts, the results for `CC/N=c1\cc2oc3cc(NCC)c(C)cc3c(-c3ccccc3C(=O)CC)c-2cc1C` [Compound 90] are “++”, 550 and 528.
On the same counts, the results for `O=C(O)C[n+]1c(/C=C/c2ccc3c(c2)C2CCCC2N3c2ccccc2)sc2ccccc21.[Br-]` (stereo not shown) [Compound 61] are “++”, 636 and 545.
For the compound `CCN1C=C/C(=C\C=C\c2cc[n+](CC)c3ccccc23)c2ccccc21.[I-]` [Compound 26], in data set [1], the Stained site is 2 and the Staining ability entry is on record as “++”. Also, in data set [2] (setting [3]), the “λem (fluorescence wavelength)” value was 715 and the “λex (excitation wavelength)” value came out at 679.
On the same counts, the results for `COc1ccc(N2c3ccc(/C=C/C4=[N+](CCC(=O)O)c5ccc6ccccc6c5C4(C)C)cc3C3CCCC32)cc1.[I-]` (stereo not shown) [Compound 75] are 1, “++”, 683 and 619.
`COc1ccc2cc(N3c4ccc(/C=C/c5sc6ccccc6[n+]5CC(=O)O)cc4C4CCCC43)ccc2c1.[Br-]` (stereo not shown) [Compound 64]: in data set [1], the Stained site amounted to 2 and the Staining ability result is recorded as “++”. For the same compound, in data set [2] (setting [3]), the “λem (fluorescence wavelength)” value worked out at 516 and the “λex (excitation wavelength)” value stood at 401.
Regarding `CCN1C(=O)/C(=c2/s/c(=C/c3ccc4c(c3)C3CCCC3N4c3ccc(C=C(c4ccccc4)c4ccccc4)cc3)c(=O)n2CC(=O)O)SC1=S` (stereo not shown) [Compound 80], the Staining ability entry in data set [1] is “++”. In data set [2] (setting [3]), the “λem (fluorescence wavelength)” value was 673 and the “λex (excitation wavelength)” value is reported as 551.
On the same counts, the results for `C=CCN1C(=O)/C(=C2\S/C(=C/c3ccc4c(c3)C3CCCC3N4c3ccccc3)CN2CC(=O)O)SC1=S` (stereo not shown) [Compound 98] are “∘”, 690 and 510.
As for `CCCCCC(CC)Nc1ccc2c3c(cc(=O)n2C)-c2ccccc2C(=O)c13` (stereo not shown) [Compound 2], the Staining ability result in data set [1] is “+++”. Moreover, in data set [2] (setting [3]), the “λem (fluorescence wavelength)” value came out at 553 and the “λex (excitation wavelength)” value was 486.
As to `Nc1c(Br)cc(O)c2c1C(=O)c1ccccc1C2=O` [Compound 111], the Staining ability result in data set [1] was “∘”. Also, in data set [2] (setting [4]), the “λem (fluorescence wavelength)” value was 589 and the “λex (excitation wavelength)” value came out at 527.
For the compound `CCCCCCCCN1C(=O)S/C(=c2/s/c(=C/c3ccc4c(c3)C3CCCC3N4c3ccccc3)c(=O)n2CC(=O)OCC)C1=O` (stereo not shown) [Compound 59], in data set [1], the Staining ability entry is on record as “++”. Besides, in data set [2] (setting [3]), the “λem (fluorescence wavelength)” value worked out at 625 and the “λex (excitation wavelength)” value is listed as 581.
Consider `COc1ccc(N2c3ccc(/C=C/C4=[N+](C)c5ccccc5C4(C)C)cc3C3CCCC32)cc1.[Br-]` (stereo not shown) [Compound 74], for which, in data set [1], the Stained site is on record as 1 and the Staining ability entry is given as “++”. In data set [2] (setting [3]), the “λem (fluorescence wavelength)” value is on record as 669 and the “λex (excitation wavelength)” value came out at 614.
Consider `Cn1c(=O)cc2c3c(c(Nc4ccccc4)ccc31)C(=O)c1ccccc1-2` [Compound 110], for which the Staining ability result in data set [1] is given as “∘”. Also, in data set [2] (setting [4]), the “λem (fluorescence wavelength)” value is listed as 614 and the “λex (excitation wavelength)” value was 538.
In the case of `CCC(/C=C1\Oc2ccc(-c3ccccc3)cc2N1CC)=C\c1oc2ccc(-c3ccccc3)cc2[n+]1CC.[I-]` [Compound 17], in data set [1], the Stained site amounted to 1 and the Staining ability result was “++”. Besides, in data set [2] (setting [3]), the “λem (fluorescence wavelength)” value was 564 and the “λex (excitation wavelength)” value amounted to 459.
`O=C(O)C1=NN(c2ccccc2)C(=O)/C1=C\c1ccc2c(c1)C1CCCC1N2c1ccc(Cc2ccccc2)cc1` (stereo not shown) [Compound 45]: in data set [1], the Staining ability result is given as “++”. Further, in data set [2] (setting [3]), the “λem (fluorescence wavelength)” value is 586 and the “λex (excitation wavelength)” value turned out to be 481.
For `Cc1cccc(C)c1Nc1ccc2c3c(cc(=O)n2C)-c2ccccc2C(=O)c13` [Compound 122], in data set [1], the Staining ability entry is “∘”. In addition, in data set [2] (setting [4]), the “λem (fluorescence wavelength)” value was 582 and the “λex (excitation wavelength)” value turned out to be 534.
On the same counts, the results for `Cc1ccc(Nc2ccc3c4c(cc(=O)n3C)-c3ccccc3C(=O)c24)c(C)c1` [Compound 120] are “∘”, 609 and 537.
Consider `CCCCCN1/C(=C/C=C/c2oc3ccccc3[n+]2CCCCC)Oc2ccccc21.[I-]` [Compound 29], for which the Staining ability result in data set [1] is given as “++”. Also, in data set [2] (setting [3]), the “λem (fluorescence wavelength)” value amounted to 509 and the “λex (excitation wavelength)” value is 474.
On to `COc1ccc(N2c3ccc(/C=C/c4sc5ccccc5[n+]4CC(=O)O)cc3C3CCCC32)cc1.[Br-]` (stereo not shown) [Compound 60], for which, in data set [1], the Stained site was 2 and the Staining ability result is recorded as “++”. Moreover, in data set [2] (setting [3]), the “λem (fluorescence wavelength)” value was found to be 677 and the “λex (excitation wavelength)” value is 560.
In the case of `CCOc1ccc(Nc2ccc3c4c(cc(=O)n3C)-c3ccccc3C(=O)c24)cc1` [Compound 117], the Staining ability entry in data set [1] is on record as “∘”. In data set [2] (setting [4]), the “λem (fluorescence wavelength)” value is 581 and the “λex (excitation wavelength)” value is listed as 538.
On to `CSc1cccc(N2c3ccc(/C=C4/SC(=S)N(CC(=O)O)C4=O)cc3C3CCCC32)c1` (stereo not shown) [Compound 103], for which the Staining ability result in data set [1] is “∘”. In data set [2] (setting [3]), the “λem (fluorescence wavelength)” value stood at 640 and the “λex (excitation wavelength)” value is on record as 520.
On the same counts, the results for `Cc1cc(C)cc(Nc2ccc3c4c(cc(=O)n3C)-c3ccccc3C(=O)c24)c1` [Compound 109] are “∘”, 630 and 540.
On the same counts, the results for `CCN1C(=O)/C(=c2\s/c(=C/c3ccc4c(c3)C3CCCC3N4c3ccc(SC)cc3)c(=O)n2CC(=O)O)SC1=S` (stereo not shown) [Compound 67] are “+++”, 699 and 570.
On the same counts, the results for `COc1ccc(N2c3ccc(/C=C4\Oc5ccc(I)cc5C4=O)cc3C3CCCC32)cc1` (stereo not shown) [Compound 108] are “∘”, 680 and 530.
Turning to `CC1(C)C(/C=C/c2ccc3c(c2)C2CCCC2N3c2ccc(C=C(c3ccccc3)c3ccccc3)cc2)=[N+](CCC(=O)O)c2ccc3ccccc3c21` (stereo not shown) [Compound 76], the Staining ability result in data set [1] was “++”. In data set [2] (setting [3]), the “λem (fluorescence wavelength)” value worked out at 724 and the “λex (excitation wavelength)” value is on record as 674.
